Measurements taken from PubChem BioAssay (NCI).
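Dose response: 5 concentrations. Exposure: 48 h. Format: 96-well plates. Endpoint: linear interpolation; highest concentration if not reached. TGI denotes the concentration required for complete inhibition of growth.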

Assays:
Assay in all cases: inhibition of tumour cell growth, NCI panel, 48 h
[1] = test system: 786-0 renal
[2] = test system: HCT-15 colon
[3] = test system: HS 578T breast
[4] = test system: IGROV1 ovarian
[5] = test system: MOLT-4 leukemia
[6] = test system: NCI-H226 lung
[7] = test system: NCI-H460 lung
[8] = test system: OVCAR-3 ovarian
[9] = test system: SK-OV-3 ovarian
[10] = test system: UACC-62 melanoma
[11] = test system: HT29 colon

SMILES | TGI [1] | TGI [2] | TGI [3] | TGI [4] | TGI [5] | TGI [6] | TGI [7] | TGI [8] | TGI [9] | TGI [10] | TGI [11]
C=CCN(c1cc(OC)c2[nH]c(C(=O)O)c(C)c2c1[N+](=O)[O-])S(C)(=O)=O | > 100 µM | > 100 µM | > 100 µM | > 100 µM | > 100 µM | > 100 µM | > 100 µM | > 100 µM | > 100 µM | > 100 µM | 
O=C1CN(c2ccccc2)C(=O)C1C(=O)Nc1ccc(Cl)c(Cl)c1 (stereo not given) |  | 13.1 µM |  | 14.9 µM | 11.7 µM |  |  | 12.6 µM | 15.8 µM | 12.4 µM | 17.2 µM
CC1=[N+]([O-])C2(CCCC2)N(O)C1(C)C | > 100 µM | > 100 µM | > 100 µM | > 100 µM |  | > 100 µM | > 100 µM | > 100 µM | > 100 µM | > 100 µM | > 100 µM
CCOP(=O)(CC1OC(CO)C(O)C1O)OCC (stereo not given) | > 100 µM | > 100 µM | > 100 µM | > 100 µM | > 100 µM |  | > 100 µM | > 100 µM | > 100 µM | > 100 µM | > 61.8 µM
Fc1ccc(OCc2ccc3nc(-c4ccccc4)c(Cl)nc3c2)cc1 | 56.9 µM | > 100 µM | 67.7 µM | 74.3 µM | 60 µM |  | > 100 µM | > 100 µM |  | > 100 µM | > 100 µM
CC(Br)CN(CC(C)Br)c1ccc2c(c1)Cc1ccccc1-2 (stereo not given) | 23.1 µM | 27.7 µM | 41.7 µM | 20.7 µM | 34.6 µM |  | 9.23 µM | 24 µM | 31.1 µM | 24.2 µM | 25.9 µM
CN1C2CCC1C(CO)C(=O)C2 (stereo not given) |  | 75.3 µM | > 100 µM | > 100 µM | 59.5 µM | > 100 µM | > 100 µM | > 100 µM | > 100 µM | > 100 µM | 
CCc1nc2c([nH]1)C(=O)c1ccccc1C2=O | > 100 µM | > 100 µM |  |  | > 100 µM | > 100 µM | > 100 µM | 61.7 µM | > 100 µM | > 100 µM | > 100 µM
C[C@@](Br)(C(=O)O)[C@H](Br)C(=O)O | > 100 µM | > 100 µM |  | > 100 µM | > 100 µM | > 100 µM | > 100 µM | > 100 µM | > 100 µM | > 100 µM | > 100 µM
CC(=O)Nc1ccc2c(c1)nc1c3ccccc3ccn21 | > 100 µM | > 100 µM | > 100 µM | > 100 µM | > 100 µM | > 100 µM | > 100 µM |  | > 100 µM | > 100 µM | > 100 µM
Cn1c(=O)c2[nH]c(Nc3cccc(Cl)c3)nc2n(C)c1=O | > 10 µM | > 10 µM |  | > 10 µM | > 10 µM |  |  |  | > 10 µM | > 10 µM | > 10 µM
CCC1(c2ccc(OC)c(OC)c2)CCN2C(=O)C(O)CC21 (stereo not given) | > 100 µM | > 100 µM |  | > 100 µM | > 100 µM | > 100 µM | > 100 µM | > 100 µM | > 100 µM | > 100 µM | > 100 µM
CCOC(=O)C(NC(=O)CC)(Nc1ccccc1F)C(F)(F)F (stereo not given) |  | > 100 µM | > 100 µM | > 100 µM | > 100 µM |  | > 100 µM | > 100 µM | > 100 µM | > 100 µM | > 100 µM
C=C1C[C@@H]2CC[C@@]34CC5O[C@H]6C(O[C@H]7CC[C@H](CC(=O)O[C@@H]8[C@@H](C)[C@@H]9O[C@@H]%10C[C@]%11(C[C@@H]%12O[C@]%13(C[C@H](C)[C@@H]%14O[C@@H]%15CC(C(COC(C)=O)OC(C)=O)O[C@@H]%15C[C@@H]%14O%13)C[C@H](C)[C@@H]%12O%11)O[C@@H]%10C[C@@H]9O[C@H]8CC8O[C@@H](CC[C@@H]1O2)C[C@@H](C)C8(O)CO)O[C@@H]7[C@@H]6O3)[C@H]5O4 (stereo not given in full) | > 1 µM | > 1 µM | 0.801 µM | > 1 µM | > 1 µM | > 1 µM | > 0.955 µM | > 1 µM | > 1 µM | > 1 µM | 
CN(C)C(=O)/N=C1\SC(=Nc2ccccc2)C(=Nc2ccccc2)N1c1ccc([N+](=O)[O-])cc1 |  | > 100 µM | > 100 µM | > 100 µM | > 100 µM | > 100 µM | > 100 µM | > 100 µM | > 100 µM | > 100 µM | > 100 µM
O=c1cccc2n1CC1CNCC2C1 (stereo not given) | > 100 µM | > 100 µM | > 100 µM |  | > 100 µM | > 100 µM | > 100 µM | > 100 µM | > 100 µM | > 100 µM | > 100 µM
CCC(C)C(NC(=O)C(CCCC[N+](=N)N)NC(=O)C(CCCC[N+](=N)N)NC(=O)c1ccc(OC)cc1)C(=O)NC(CCCC[N+](=N)N)C(=O)N1CCCC1C(=O)NC(CCCCN)C(=O)NC(CC(C)C)C(N)=O (stereo not given) | > 100 µM | > 100 µM | > 100 µM |  | > 100 µM | > 100 µM | > 100 µM | > 100 µM | > 100 µM | > 100 µM | > 100 µM
O=C1C=CC(=O)c2c(O)c(N3CCN(c4ncccn4)CC3)c(Cl)c(O)c21 | 3.1 µM |  | 7.12 µM | 3.43 µM | 5.5 µM | 44.8 µM | > 47.6 µM | 3.16 µM | 38.6 µM | 6.02 µM | 6.73 µM
O=C1c2cccnc2C(=O)c2c1nc1ccccc1c2-c1ccc2c3c(nc4ccccc42)C(=O)c2cccnc2-c13 | 1.91 µM | 1.76 µM | 11.1 µM | 1.39 µM | 5.66 µM | 7.55 µM | 3.97 µM |  | 18.5 µM | 5.1 µM | 7.57 µM
Clc1sc(Cl)c2c1[C@H](Br)C[C@@H]2Cl | 99.1 µM | 40.7 µM | 49.8 µM | 44.6 µM | 53.1 µM |  | > 100 µM | 64.9 µM | > 100 µM | 69.1 µM | > 100 µM
OCCN(CCO)c1ncnc2c1sc(=S)n2-c1ccccc1 | > 100 µM | > 100 µM |  | > 100 µM | > 100 µM | > 100 µM | > 100 µM | > 100 µM | > 100 µM | > 100 µM | > 100 µM
